Results on 28 molecules are retold here after patent US20050176649A1, “Iap binding peptides and assays for identifying compounds that bind iap” (priority 2001, published 2005).

The target in test [1] is T1, BIR3 domain of XIAP (recombinant XIAP-BIR3, residues 238-358) (Homo sapiens, UniProt P98170).
T1 construct: Recombinant XIAP-BIR3 (residues 238-358); GST (N, cleaved yes); made in house; host or cells: E. coli
In words: Fluorescence-based competition assay of tetrapeptide libraries (Example 1). Format: binding, mammalian. The source says:
Expression and Purification of BIR3. […] The soluble fraction of the GST-BIR3 in the E. coli lysate was purified over a glutathione sepharose column, and further purified by anion exchange chromatography (Mono-Q, Amersham Biosciences). The fusion protein was cleaved by thrombin, and the GST portion was removed by the glutathione sepharose column. The BIR3 protein was further purified over a gel filtration column (Superdex 30, Amersham Biosciences).
Fluorescence Experiments. Luminescence spectra were recorded using a Photon Technologies, Inc. fluorometer with a Xe arc lamp and a PMT detector. […] The buffer used in all of the fluorescence experiments was 50 mM potassium phosphate, 100 mM NaCl, 2 mM 1,4-dithio-DL-threitol (DTT), pH 7.
Assay of Tetrapeptide Libraries. The samples were prepared in a 96 well plate lined with glass tubes, to prevent adsorption of the dye to plastic. The plate was stored on ice in the dark between measurements. […] 390 μL of this stock solution were added to 50 wells of the 96 well plate. 50 μL of the test tetrapeptide solutions were added and mixed immediately prior to taking the emission spectra. The final solutions were 5 μM in both badan and BIR3, and approximately 20-30 μM in the tetrapeptide solutions. […] 50 μL of water was added to these wells, again as controls, to determine the intensity of the unbound dye.
The binding of various tetrapeptide mimics to the BIR3 domain of XIAP was determined using a fluorescence-based competition assay. The assay is based on an environment-sensitive fluorogenic dye molecule, badan. Badan is a dye whose sensitivity to environmental changes has previously been used to probe protein binding interactions. […] As the dye is displaced from the binding pocket by the test molecule, the emission shifts back towards the aquated spectrum.

Test [2] concerns the target T2, BIR3 domain of XIAP (Homo sapiens, UniProt P98170).
T2 construct: Recombinant XIAP-BIR3 (residues 238-358); GST (N, cleaved yes); made in house; host or cells: E. coli
In words: Fluorescence displacement assay: AVPC-badan displaced from BIR3 by test tetrapeptide (typical assay, Tables 1 and 2). Format: binding, mammalian. The settings on record: for K: binding (equilibrium) constant for displacement of AVP-dye, position-4 library, 5 μM dye and protein, larger = greater affinity; for Intensity (470 nm): emission intensity of AVPC-badan with BIR3 and test tetrapeptide, excitation 387 nm, lower = more dye displaced; for Fraction free: fraction of AVPC-badan free (displaced from BIR3), from intensity at 470 nm; for Krelative: relative equilibrium constant for displacement of AVP-dye, larger = greater affinity for BIR3. An excerpt: The ability to quickly assay small molecules for their effectiveness in disrupting protein-protein interactions is critical to the development of viable drug candidates. One aspect of the present invention comprises an assay to test the binding affinity of a library of tetrapeptide molecules for the BIR3 domain of an inhibitor of apoptosis protein (LAP), particularly the mammalian XIAP. The assay is based on a detectable label, preferably a fluorogenic dye molecule. In preferred embodiments, the fluorophore is attached to a tripeptide, AVP, whose sequence matches the N-terminal three residues of Smac. The general structure of this molecule, therefore, is AVP[X], wherein X is the fluorophore. The molecule is referred to herein as an “AVP-dye”. The AVP-dye packs into the groove of the BIR3, causing a large shift in emission maximum and intensity when the environment of the dye changes from water to the hydrophobic pocket of the protein. If a molecule (e.g. the native Smac protein or a tetrapeptide mimic) displaces the dye, then emission will shift back to the spectrum observed in water. Since the emission intensity is related to the binding of the tetrapeptide, the intensity can be used to estimate the equilibrium constant, K, for displacement of the AVP-dye by the tetrapeptide. The larger the equilibrium constant, the greater affinity the tetrapeptide has for the BIR3.
The aforementioned AVP-dye is used in an assay of test compounds that may, like the Smac tetrapeptide AVPI, bind to the BIR3 domain of XIAP, thereby relieving XIAP-mediated suppression of apoptosis. This is a high-throughput, cell-free assay, that is assembled as follows. A protein comprising the BIR3 domain of an IAP is placed in an assay medium comprising a suitable buffer, as described above. Preferably, this is a recombinant protein comprising the BIR3 domain, but a full IAP protein also may be used. An aliquot of the AVP-dye is added to the reaction mixture, in the presence of the test compound. Controls comprise the BIR3 and the dye in the absence of the test compound and, optionally, BIR3 and the dye in the presence of the naturally occurring tetrapeptide, AVPI. […] Alternatively, a emission spectrum is measured at the selected excitation wavelength. In one type of measurement, the test compound is added and an emission spectrum is measured by scanning from, e.g., 460-480 nm. In another type of measurement, the emission intensity at a particular wavelength, e.g., 470 nm, is measured. […] Thus, the binding affinity of the test compound may be calculated as a function of its ability to displace the dye from the BIR3 domain, according to the following calculation: [formula]
Stock solution of badan, BIR3, and buffer were mixed: 2.5 ml of badan, 1.75 ml BIR3, and 15.25 ml of buffer were mixed in a glass vial which had been chilled to 4° C. Added 390 μL of the stock solution to 50 wells in the pre-chilled 96 well plate (wells A1-E2).
Stock solution of badan and buffer were mixed: 150 μL badan and 1020 μL of buffer were mixed in a small glass vial (also chilled) and added to 3 wells on the plate in 390 μL aliquots (F1-F3).
The 96 well plate was stored over ice in an insulated bucket while the emission spectra of the samples were taken. Fifty μL of the appropriate test solution (or water, for the control experiments) was added with a micropipet, the solution mixed with a Pasteur pipet before adding the sample to the fluorescence cuvette. While one sample was being scanned, the cuvette from the previous scan was washed with EtOH and then next sample was prepared.

pKd: −log10 of the molar value. Non-standard residues stand in square brackets, D forms with d. Residues, ends and D or L forms follow the SMILES beside them. ξ: configuration not given here. NMeF = CN[C@@H](Cc1ccccc1)C(=O)O; NMeV = CN[C@H](C(=O)O)C(C)C; ξAbu = CCC(N)C(=O)O

T1 sequence (P98170 238-358): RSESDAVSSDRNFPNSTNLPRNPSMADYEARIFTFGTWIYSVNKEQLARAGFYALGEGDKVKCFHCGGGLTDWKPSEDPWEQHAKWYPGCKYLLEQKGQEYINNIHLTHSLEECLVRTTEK
T2 sequence (P98170 238-358): as above

Broadly, the pKd is the Kd on a negative log10 scale, so that one unit is a factor of ten. Take `CC[C@H](C)[C@H](NC(=O)[C@@H]1CCCN1C(=O)[C@@H](NC(=O)[C@H](C)N)[C@@H](C)O)C(N)=O` [ATPI] (H-ATPI-NH2; N-terminus and C-terminus assumed): the pKd in test [1] was 5.92.

`CC(C)[C@H](NC(=O)[C@H](C)N)C(=O)N1CCC[C@H]1C(=O)N[C@H](C(N)=O)[C@@H](C)O` [AVPT] (H-AVPT-NH2; N-terminus and C-terminus assumed) yielded a K in test [2] of 0.143. Besides, the pKd in test [1] was 5.68.

With `CC[C@H](C)[C@@H](C(N)=O)N(C)C(=O)[C@@H]1CCCN1C(=O)[C@H](CCCNC(=N)N)NC(=O)[C@H](C)N` [ARP(N-Me)I], in test [1], the pKd was 3.72. On the same count and under the same terms, the same measure for `C[C@H](N)C(=O)N[C@@H](CCCNC(=N)N)C(=O)N1CCC[C@H]1C(=O)N(C)[C@@H](Cc1ccccc1)C(N)=O` [ARP(N-Me)F] (H-ARP[NMeF]-NH2; N-terminus and C-terminus assumed): 6.15. `CC[C@H](C)[C@H](NC(=O)[C@@H]1CCCN1C(=O)[C@H](CC(=O)O)NC(=O)[C@H](C)N)C(N)=O` [ADPI] (H-ADPI-NH2; N-terminus and C-terminus assumed): in test [1], the pKd is 4.77. `CC(C)[C@H](NC(=O)[C@@H]1CCCN1C(=O)[C@@H](NC(=O)[C@H](C)N)C(C)C)C(N)=O` [AVPV] (H-AVPV-NH2; N-terminus and C-terminus assumed): in test [2], the K is given as 0.1011. Besides, the pKd in test [1] is 5.82. Turning to `CC[C@H](C)[C@H](NC(=O)[C@@H]1CCCN1C(=O)[C@H](CC(N)=O)NC(=O)[C@H](C)N)C(N)=O` [ANPI] (H-ANPI-NH2; N-terminus and C-terminus assumed), the pKd in test [1] was 5.82. In turn, `CC(C)[C@H](NC(=O)[C@H](C)N)C(=O)N1CCC[C@H]1C(=O)N[C@@H](C)C(N)=O` [AVPA] (H-AVPA-NH2; N-terminus and C-terminus assumed) registered a K in test [2] of 0.05518. Further, in test [1], the pKd was 4.85. Molecule `CSCC[C@H](NC(=O)[C@@H]1CCCN1C(=O)[C@@H](NC(=O)[C@H](C)N)C(C)C)C(N)=O` [AVPM] (H-AVPM-NH2; N-terminus and C-terminus assumed) registered a K in test [2] of 0.05288. In addition, the pKd in test [1] was 5.64. As for `CC[C@H](C)[C@H](NC(=O)[C@@H]1CCCN1C(=O)[C@H](CC(C)C)NC(=O)[C@H](C)N)C(N)=O` [ALPI] (H-ALPI-NH2; N-terminus and C-terminus assumed), in test [2], the “Intensity (470 nm)” value is 38650, the Fraction free came out at 0.8679 and the Krelative is 3.5812. Take `CC(C)[C@H](NC(=O)[C@H](C)N)C(=O)N[C@@H](C)C(=O)N[C@@H](Cc1ccccc1)C(N)=O` [AVAF]: the pKd in test [1] is 6.25. As for `CC[C@H](C)[C@H](NC(=O)[C@@H]1CCCN1C(=O)[C@@H]1CCCN1C(=O)[C@H](C)N)C(N)=O` [APPI] (H-APPI-NH2), the pKd in test [1] is less than 4.00. Turning to `CC[C@H](C)[C@@H](C(N)=O)N(C)C(=O)[C@@H]1CCCN1C(=O)[C@@H](NC(=O)[C@H](C)N)C(C)C` [AVP(N-Me)I], the pKd in test [1] is 3.76. Take `CC[C@H](C)[C@H](NC(=O)[C@@H]1CCCN1C(=O)[C@H](C)NC(=O)[C@H](C)N)C(N)=O` [AAPI] (H-AAPI-NH2; N-terminus and C-terminus assumed): the pKd in test [1] is 5.55. Still for that read-out and setting: for `CC[C@H](C)[C@H](NC(=O)[C@@H]1CCCN1C(=O)[C@H](CO)NC(=O)[C@H](C)N)C(N)=O` [ASPI] (H-ASPI-NH2; N-terminus and C-terminus assumed) the value was 5.85; for `CC(C)[C@@H](C(=O)N1CCC[C@H]1C(=O)N(C)[C@@H](Cc1ccccc1)C(N)=O)N(C)C(=O)[C@H](C)N` [A(N-Me)VP(N-Me)F] (H-A[NMeV]P[NMeF]-NH2; N-terminus and C-terminus assumed), 4.04. In the case of `CC[C@H](C)[C@H](NC(=O)[C@@H]1CCCN1C(=O)[C@H](Cc1c[nH]c2ccccc12)NC(=O)[C@H](C)N)C(N)=O` [AWPI] (H-AWPI-NH2; N-terminus and C-terminus assumed), the pKd in test [1] was 6.00. On to `CC(C)[C@H](NC(=O)[C@H](C)N)C(=O)N1CCC[C@H]1C(=O)N(C)[C@@H](Cc1ccccc1)C(N)=O` [AVP(N-Me)F] (H-AVP[NMeF]-NH2; N-terminus and C-terminus assumed), for which the pKd in test [1] was 6.05.

As for `CC[C@H](C)[C@H](NC(=O)[C@@H]1CCCN1C(=O)[C@H](C(C)C)N(C)C(=O)[C@H](C)N)C(N)=O` [A(N-Me)VPI], the pKd in test [1] was 3.59. For `CC[C@H](C)[C@H](NC(=O)[C@@H]1CCCN1C(=O)[C@@H](NC(=O)[C@H](C)N)[C@@H](C)CC)C(N)=O` [AIPI] (H-AIPI-NH2; N-terminus and C-terminus assumed), in test [2], the “Intensity (470 nm)” value is reported as 44902, the Fraction free is 0.8375 and the Krelative was found to be 2.6613. Regarding `CC(C)[C@@H](C(=O)N1CCC[C@H]1C(=O)N[C@@H](Cc1ccccc1)C(N)=O)N(C)C(=O)[C@H](C)N` [A(N-Me)VPF], the pKd in test [1] is 4.08. As for `CC[C@H](C)[C@H](NC(=O)[C@@H]1CCCN1C(=O)[C@H](CCC(=O)O)NC(=O)[C@H](C)N)C(N)=O` [AEPI] (H-AEPI-NH2; N-terminus and C-terminus assumed), the pKd in test [1] is 5.57. Still for that read-out and setting: for `CC[C@H](C)[C@H](NC(=O)[C@@H]1CCCN1C(=O)[C@@H](NC(=O)[C@@H](N)CO)C(C)C)C(N)=O` [SVPI] the value was 4.57; for `CC[C@H](C)[C@H](NC(=O)[C@@H]1CCCN1C(=O)CNC(=O)[C@H](C)N)C(N)=O` [AGPI] (H-AGPI-NH2; N-terminus and C-terminus assumed), 4.34.

As for `CCC(N)C(=O)N[C@H](C(=O)N1CCC[C@H]1C(=O)N[C@H](C(N)=O)[C@@H](C)CC)C(C)C` (stereo partly shown) [AbuVPI] (H-[ξAbu]VPI-NH2; N-terminus and C-terminus assumed), in test [2], the “Intensity (470 nm)” value was 34770 and the Fraction free turned out to be 0.8867.

Consider `CC(C)[C@H](NC(=O)[C@H](C)N)C(=O)N1CCC[C@H]1C(=O)N[C@@H](CC(N)=O)C(N)=O` [AVPN] (H-AVPN-NH2), for which, in test [1], the pKd is less than 4.00. Still for that read-out and setting: for `CC[C@H](C)[C@H](NC(=O)[C@@H]1CCCN1C(=O)[C@@H](NC(=O)CN)C(C)C)C(N)=O` [GVPI] (H-GVPI-NH2; N-terminus and C-terminus assumed) the value was 5.05. The same measure, in the same setting: for `CC(C)[C@H](NC(=O)[C@H](C)N)C(=O)N1CCC[C@H]1C(=O)N[C@@H](CCC(N)=O)C(N)=O` [AVPQ] (H-AVPQ-NH2) the value was less than 4.00.
